According to US8673852B2, “Methods of treating neuronal disorders using MNTF peptides and analogs thereof” (Genervon Biopharmaceuticals, LLC, priority 2006, dated 2014):
“And” between values parts separate entries of the source, which are not always exact repeats. Equal values may be shown once. Read-outs that look alike come from different tables or passages of the source. Ends that are not written are not given here.

Assays:
[1] = test system: embryonic stem cells; experiment: Differentiation of embryonic stem cells into motor neurons in vitro; type: cell-based, murine
[2] = test system: SH-SY5Y cells; experiment: Cell culture model of Parkinson's disease: SH-SY5Y cell viability (MTT) with or without salsolinol; type: cell-based, human; settings: for Viability (% Cells) Mean ± SD: 24 h
Experimental: SH-SY5Y cells were purchased from American Type Culture Collection (Manassas, Va.) and cultured in a complete media containing minimum essential media, Hams F-12 media and Hanks Balanced Salt Solution Gibco-BRL) in a ratio of 2:1:1. The media also contained 10% fetal bovine serum along with penicillin (50 U/ml) and streptomycin ([…]). The cells were cultured in flasks and kept in a humidified incubator containing 5% CO2 in air at 37° C. The media was changed every 2-3 days.
Prior to manipulation, cultures were assigned to different treatment groups based on a randomized block design.
For cell viability experiments, SH-SY5Y cells (0.5×10^5/well) were cultured in a 96-well cell culture plate and treated with (±) SAL (Sigma, St. Louis, Mo.) alone or along with different concentrations of (GM6) (Genervon), with or without Wortmannin (WRT) (Sigma, St. Louis, Mo.), a phosphatidylinositol-3-kinase (PI-3 kinase) inhibitor, for 24 h. Cell viability was determined by Thiazolyl blue (MTT) assay.

[3] = Immunocytochemical analysis of brain for GM6 with anti-6mer antibody; type: in vivo, C57BL/6 mice; settings: 0.2 or 2 mg/kg IV
Experimental: (§1) C57BL6 mice were injected with GM6 at the indicated doses and examined for GM6 in the brain. Half of the brain was taken for immunocytochemical analysis for GM6, the other half (brain) was frozen for ELISA analysis.
(§2) Animals were acclimated for 1 week prior to experimentation. The animals were bolus i.v. dosed via tail vein with vehicle or GM6 at 0.2 or 2 mg/kg. […] Vehicle control received saline solution.
The immunocytochemical stained area in each section was determined with a computer-assisted image analysis system, consisting of a Power Macintosh computer equipped with a Quick Capture frame grabber card, Hitachi CCD camera mounted on an Olympus microscope and camera stand. NIH Image Analysis Software, v. 1.55 was used. The images were captured and the total area of GM6 peptide was determined over the ten sections.

[4] = test system: primary rat neuronal cell cultures; type: cell-based
Experimental: Sprague Dawley rat cortical neuronal cells were isolated from 18-day-old embryonic fetuses and growth in culture for 12 days. Post mortem CSF from control and various neurological disorders donors were applied to the cultures and examined for neuronal viability. In addition, MNTF was added to the cultures to protect the cells from injury.
Neuronal cultures were prepared from 18-day-old Sprague-Dawley rat fetuses. Fetal rat midbrains were dissected and incubated for 15 min in a solution of 2 mg/mL trypsin in Ca2+- and Mg2+-free Hanks' balanced salt solution (HBSS) buffered with 10 mM HEPES (GIBCO Life Technologies, Paisley, Scotland). The tissue was then exposed for 2 min to soybean trypsin inhibitor (1 mg/mL in HBSS) and rinsed three times in HBSS. Cells were dissociated by trituration and distributed to 96-well or 24-well poly-L-lysine-coated plastic culture plates (Costar, Cambridge, Mass.). Initial plating densities were approximately 160-180 cells/mm2. At the time of plating, each well contained 0.2 ml of DMEM/F12 medium (GIBCO Life Technologies, NY) supplemented with 100 mL/L fetal bovine serum (Sigma Chemicals, St. Louis, Mo.). After a 24-hr period, the DMEM/F12 medium was replaced with 0.15 mL of 2% v/v B-27 Neurobasal medium supplemented with 2 mM GlutaMAX and 0.5% w/v D-(+) glucose (GIBCO Life Technologies). Twice a week, two-thirds of the Neurobasal medium was replaced with freshly prepared medium of the same composition. Cultures were used for neurotoxicity experiments after 12 days in culture. The research investigators at NTS were unaware of the material prior to, during the study and when the preliminary data were presented to the Sponsor (GB).
UCLA Human Brain and Spinal Fluid Resource Center (Los Angeles, Calif.) supplied the post mortem CSF samples from five donors of each of the nine study groups along with identification and clinical diagnosis and neuropathology diagnosis documents. Samples were stored at −170° C. prior to shipment and were shipped with dry ice. The study groups were control (no neurological disorder), Amyotrophic Lateral Sclerosis (ALS), Neuropathy (NP), Multiple Sclerosis (MS), Alzheimer's Disease (AD), Batten's Disease (BD), Huntington's Disease (HD), Parkinson's Disease (PD), and Cerebral Ischemia (stroke).
To test the effects of CSF on neuronal cell survival, CSF was added to the cultures in Neurobasal medium containing 10% CSF. CSF was added to the cultures and examined after 48 hours. Images of cultures were taken and then the cultures were subjected to MTT assay (see below) to determine the % cell death. Additional cultures were incubated with MNTF (100 nM) added to the cultures 2 hours prior to addition of CSF.
MTT assay. Viability of primary neurons was determined as described. The relative number of surviving cells was determined in triplicate using the value for cells stimulated with vehicles as 100%. Cell survival was assessed on the 2nd day of treatment via an MTT assay. MTT (3-[4,5-dimethylthiazol-2-yl]-2,5-diphenyltetrazolium bromide) was diluted to […] in Hanks' solution (Biochrom) and added to cultures for two hours at 37° C. The MTT formazan product was released from the cells by adding dimethylsulfoxide, and measured at 570 nm in an Ultrospect III spectrophotometer (Pharmacia). Relative survival in comparison to untreated controls could then be determined.

[5] = test system: permanent middle cerebral artery occlusion (MCAO) rat model; experiment: Permanent middle cerebral artery occlusion (MCAO) rat model, 28 days; settings: 2.5, 10 or 20 mg/kg IV
[6] = GM6 levels in brain by competitive ELISA after IV injection (blood brain barrier penetration); type: in vivo, C57BL/6 mice; settings: for increase in GM6 in the brain vs vehicle: 4 hours; for level at time molar at 4 h: male, C57BL/6, mouse, WT mice, brain collected 4 hours later, read-out: ELISA MNTF (μM) in the brain
Experimental: as §1, §2
To measure GM6 levels in samples using the competitive ELISA kit. Affinity purified rabbit anti-6Mer was coated on ELISA plate at 10 ug/ml in coating buffer. 6Mer-biotin was used at 1 uM (final dilution) in the assay. The known concentrations of GM6 (competitor) were used as reference standards starting from 80 uM and titrating 2-fold down 0.625 uM in the test for establishing standard curve. Concentration of tested samples was estimated from their OD450 observation based on the standard curve.
The brain tissue was prepared in cell lysis buffer containing 100 mM Tris HCl, pH 7.0, containing 2% BSA, 1 M NaCl, 4 mM EDTA, 2% Triton X-100, 0.1% sodium azide and protease inhibitors (Complete™, Mini, Boehringer Mannheim). Homogenates were prepared in 10 volumes of buffer to tissue wet weight. The homogenates were centrifuged for 30 minutes at 14,000×g. The resulting supernatant was used for ELISA with the appropriate volume adjustment.
For the assay, the anti-6Mer pAb was diluted to 10 ug/ml in ELISA coating buffer. The 96-well micro-titer plates were coated with 100 ul/well of the diluted pAb. The plates were covered and kept refrigerated overnight. Next day, the plates were blocked with 200 ul/well TBS with 3% BSA, and kept at RT for 60 min. The plates were washed 3× with TBST (TBS+0.05% Tween 20). For each plate, 10 ml 1 uM 6Mer-biotin and make 1 ml standard mix was prepared: 1 uM 6Mer-biotin with 80 uM 6Mer. For each plate, lanes 1 and 2 were used for the standard curve. 1 uM 6Mer-biotin (100 μl) was added to all wells except A1 and A2 and 200 ul/well of standard mix was added to A1 and A2. A serial 2-fold dilution from wells A1 and A2 down to wells H1 and H2 was performed by taking out 100 ul sample from each well and mix it with next well—pipetting up and down at least 8 times. The extra 100 ul at the final wells (H1 and H2) was discarded. Test samples (brain homogenate) was diluted in Ab dilution buffer and mixed at a 1:50 with the 1 uM 6Mer-biotin. The plate was mixed on a shaker at 400 rpm for 2 hours at RT. The samples were washed 6× with TBST. Streptavidin-HRP (10 ml per plate) solution was prepared by diluting Streptavidin-HRP to 1:2000 in Ab dilution buffer. The plate was mixed on the shaker for another 1 hour at RT. The samples were wash 8× with TBST. […] The reaction was stopped with 50 ul 1M HCl. and read OD450 immediately.

[7] = test system: middle cerebral artery occlusion (MCAO) mouse model; experiment: Middle cerebral artery occlusion (MCAO) mouse model, 1 hour ischemia and 24 hours reperfusion; type: in vivo, C57BL/6 mice; settings: 1 or 5 mg/kg IV single dose
Experimental: (§3) The MABP and heart rate was recorded using a Visitech System blood pressure monitor.
All animals were subjected to 1.0 h ischemia followed by 24 h reperfusion. […] Vehicle control received saline solution.
(§4) This study involved a transient model of ischemia. […] After the nylon suture was in place for 1 hour, it was pulled back into the ECA and the incision closed.
(§5) . The brains were transcardially perfused with 4 degree C., 10% phosphate-buffered saline (PBS). The brains were removed and chilled for 15 minutes at −20 degree C. before being placed in a Rodent Brain Matrix. Coronal sections (1-mm thickness) were prepared and subjected to 2% triphenyltetrazolium chloride (TTC) staining at 37 degree C. Seven serial one-mm thick coronal sections through the rostral to caudal extent of the infarction were obtained from each brain, beginning two-mm from the frontal pole. The TTC stained sections were placed in 10% neutral buffered formalin and kept in darkness at 4° C. for at least 24 hours. The infarct area in each section was determined with a computer-assisted image analysis system, consisting of a Power Macintosh computer equipped with a Quick Capture frame grabber card, Hitachi CCD camera mounted on an Olympus microscope and camera stand. NIH Image Analysis Software, v. 1.55 was used. The images were captured and the total area of damage determined over the seven sections.

[8] = test system: middle cerebral artery occlusion (MCAO) mouse model; experiment: MCAO mouse model, 1 hour ischemia and 14 days reperfusion, time of first dose varied; type: in vivo, C57BL/6 mice; settings: 5 mg/kg IV
Experimental: as §3
Formulation of GM602 (CS Bio Co., Menlo Park, Calif., CS1507, GMP013, lot C811) was performed by NTS as a stock solution by reconstituting GM602 with (100%) saline that was stored at 4° C. Vehicle control received saline solution. The bolus IV injections via tail with GM602 was initiated at times of 0, 3, 6, 12 and 24 hours after the start of reperfusion and subsequently every day for 3 days following injury.
as §4
as §5, with “The brains were transcardially perfused with 4 degree C., 10% phosphate-buffered saline (PBS).” left out, “−20°” for “−20 degree”, “37°” for “37 degree”, “The TTC stained sections were placed in 10% neutral buffered formalin and kept in darkness at 4° C. for at least 24 hours.” left out, “NIH Image Analysis Software, v. 1.55 was used.” left out

[9] = Safety in animal studies; type: in vivo; settings: over 1000 Sprague Dawley rats and 15 of both wobbler mice and normal littermates
[10] = test system: stem cell derived motor neurons; experiment: Survival of stem cell derived motor neurons; type: cell-based; settings: compared with MNTF 33mer

## LGTFWGDTLNCWMLSAFSRYARCLAEGHDGPTQ (LGTFWGDTLNCWMLSAFSRYARCLAEGHDGPTQ) [33-mer]
[1]; in conjunction with a low concentration of RA
  differentiation of ES cells into motor neurons: induced differentiation

## C[C@@H]1NCCc2cc(O)c(O)cc21 [Salsolinol, reference compound]
[2]; Salsolinol 100 μM alone, MTT
  Viability (% Cells) Mean ± SD: 36.48 ± 12.78%
[2]; Salsolinol 100 μM alone, MTT, listed as SAL
  Viability (% Cells) Mean ± SD: 36.5%
[2]; salsolinol 100 μM, 24 hour treatment
  decrease in the number of cells: 63.7%

## FSRYAR [GM6, FSRYAR]
[3]
  immunoreactivity for GM6 in brain tissue: No immunoreactivity was detected
[2]; GM6 0.1 mg/ml, no salsolinol, MTT
  Viability (% Cells) Mean ± SD: 101.2 ± 7.260%
[2]; GM6 1 mg/ml, no salsolinol, MTT
  Viability (% Cells) Mean ± SD: 108.0 ± 8.249%
[2]; GM6 10 mg/ml + WRT (10 μM), no salsolinol
  Viability (% Cells) Mean ± SD: 93.81 ± 9.246%
[2]; GM6 10 mg/ml, no salsolinol, MTT
  Viability (% Cells) Mean ± SD: 119.9 ± 14.01%
[2]; Salsolinol 100 μM + GM6 0.1 mg/ml
  Viability (% Cells) Mean ± SD: 66% and 65.85 ± 10.80%
[2]; Salsolinol 100 μM + GM6 1 mg/ml
  Viability (% Cells) Mean ± SD: 85% and 85.19 ± 10.18%
[2]; Salsolinol 100 μM + GM6 10 mg/ml + WRT (10 μM)
  Viability (% Cells) Mean ± SD: 41.35 ± 10.79%
[2]; Salsolinol 100 μM + GM6 10 mg/ml
  Viability (% Cells) Mean ± SD: 95% and 95.57 ± 8.328%
[4]; AD CSF + 100 nM MNTF vs AD CSF
  % increase (↑) in cell survival: 191%
[4]; ALS CSF + 100 nM MNTF vs ALS CSF
  % increase (↑) in cell survival: 175%
[4]; HD CSF + 100 nM MNTF vs HD CSF
  % increase (↑) in cell survival: 271%
[4]; MS CSF + 100 nM MNTF vs MS CSF
  % increase (↑) in cell survival: 246%
[4]; PD CSF + 100 nM MNTF vs PD CSF
  % increase (↑) in cell survival: 198%
[4]; Stroke CSF + 100 nM MNTF vs Stroke CSF
  % increase (↑) in cell survival: 205%
[5]
  changes in HR, BP, pO2, pCO2, or pH: no changes
[6]; 0.2 mg/kg IV bolus
  increase in GM6 in the brain vs vehicle: 400%
  level at time molar at 4 h: 1.76 µM
[6]; 2 mg/kg IV bolus
  increase in GM6 in the brain vs vehicle: 3000%
  level at time molar at 4 h: 12.9 µM
[7]
  changes in HR, BP, pO2, pCO2, or pH: no changes
[8]
  changes in CBF, HR, BP, pO2, pCO2, or pH: no changes
[9]
  safety problems in animal studies: No safety problems were identified

## MLSAFSRYAR [MNTF 10mer]
[10]
  enhancing the survival of stem cell derived motor neurons: nearly as effective as the MNTF 33mer
[1]; in vitro
  concentrations at which at least as effective as the full-length MNTF 33mer at stimulating differentiation of embryonic stem cells into motor neurons: ≥ 0.01 µg/mL
